Results reported in patent US20090131354A1, “miR-126 REGULATED GENES AND PATHWAYS AS TARGETS FOR THERAPEUTIC INTERVENTION” (priority 2007, published 2009).

System: A549 cells
Assay: mRNA array gene expression analysis after transfection
Format: cell-based, human
Conditions: A549, 30 nM

## hsa-miR-126 (UCGUACCGUGAGUAAUAAUGC; synthetic pre-miR form, further chemistry not given here) [Synthetic hsa-miR-126 (Pre-miR™-hsa-miR-126, Ambion cat. no. AM17100)]
  Δ log2 LBA1 mRNA: 1.07 log2
  Δ log2 LCN2 mRNA: 1.032 log2
  Δ log2 LOC93349 mRNA: 1.021 log2
  Δ log2 LOC257407 mRNA: 1.211 log2
  Δ log2 LRP12 mRNA: −2.094 log2
  Δ log2 LXN mRNA: 1.017 log2
  Δ log2 M6PRBP1 mRNA: −1.074 log2
  Δ log2 MAP1B mRNA: −0.706 log2
  Δ log2 MAP3K1 mRNA: 1.609 log2
  Δ log2 MAPK6 mRNA: −0.81 log2
  Δ log2 MASK mRNA: −1.4 log2
  Δ log2 MAWBP mRNA: 1.126 log2
  Δ log2 MAZ mRNA: −1.133 log2
  Δ log2 MCL1 mRNA: 1.394 log2
  Δ log2 MET mRNA: −0.9508 log2
  Δ log2 MICAL2 mRNA: −1.182 log2
  Δ log2 MMP7 mRNA: 1.127 log2
  Δ log2 MR1 mRNA: 0.702 log2
  Δ log2 MTUS1 mRNA: 0.7009 log2
  Δ log2 MYBL1 mRNA: −1.008 log2
  Δ log2 NAB1 mRNA: −0.7242 log2
  Δ log2 NCF2 mRNA: −0.8706 log2
  Δ log2 NEK4 mRNA: −1.197 log2
  Δ log2 NF1 mRNA: −1.383 log2
  Δ log2 NF2 mRNA: −0.8288 log2
  Δ log2 NID1 mRNA: 0.8833 log2
  Δ log2 NPTX1 mRNA: −1.204 log2
  Δ log2 NR1H4 mRNA: 1.063 log2
  Δ log2 NR2F1 mRNA: 0.8754 log2
  Δ log2 NR4A2 mRNA: 1.19 log2
  Δ log2 NRIP1 mRNA: 0.7196 log2
  Δ log2 NUCKS mRNA: 2.05 log2
  Δ log2 OLFML3 mRNA: −1.333 log2
  Δ log2 OXTR mRNA: −1.374 log2
  Δ log2 PCAF mRNA: −1.071 log2
  Δ log2 PDCD4 mRNA: 1.094 log2
  Δ log2 PDK4 mRNA: 1.686 log2
  Δ log2 PDXK mRNA: −1.142 log2
  Δ log2 PDZK1IP1 mRNA: 0.8906 log2
  Δ log2 PEX10 mRNA: −0.7177 log2
  Δ log2 PGK1 mRNA: 1.563 log2
  Δ log2 PHACTR2 mRNA: 0.8791 log2
  Δ log2 PHTF2 mRNA: −1.334 log2
  Δ log2 PLA1A mRNA: 1.623 log2
  Δ log2 PLA2G4A mRNA: 0.8899 log2
  Δ log2 PLCB1 mRNA: 1.421 log2
  Δ log2 PLEC1 mRNA: −0.9035 log2
  Δ log2 PLK1 mRNA: −0.7295 log2
  Δ log2 PLOD2 mRNA: −1.204 log2
  Δ log2 PMCH mRNA: 0.9697 log2
  Δ log2 PMM1 mRNA: −1.034 log2
  Δ log2 PPP3CB mRNA: −1.185 log2
  Δ log2 PRKCA mRNA: −1.083 log2
  Δ log2 PRO1843 mRNA: 1.386 log2
  Δ log2 PROS1 mRNA: 1.021 log2
  Δ log2 PSME3 mRNA: −0.8427 log2
  Δ log2 PTENP1 mRNA: 0.8904 log2
  Δ log2 PTK9 mRNA: 1.028 log2
  Δ log2 PTP4A1 mRNA: 0.7259 log2
  Δ log2 PXN mRNA: −0.8029 log2
  Δ log2 Pfs2 mRNA: −0.7674 log2
  Δ log2 QDPR mRNA: −1.048 log2
  Δ log2 QKI mRNA: 0.7094 log2
  Δ log2 RAB2 mRNA: 1.459 log2
  Δ log2 RAB11FIP2 mRNA: −0.8417 log2
  Δ log2 RAB40B mRNA: 1.166 log2
  Δ log2 RABL2B /// RABL2A mRNA: −0.8805 log2
  Δ log2 RAFTLIN mRNA: 0.9753 log2
  Δ log2 RARRES1 mRNA: 1.523 log2
  Δ log2 RARRES3 mRNA: 1.399 log2
  Δ log2 RASSF2 mRNA: −1.355 log2
  Δ log2 RBP4 mRNA: 1.037 log2
  Δ log2 RGC32 mRNA: 1.701 log2
  Δ log2 RHEB mRNA: 1.113 log2
  Δ log2 RHOB mRNA: −1.015 log2
  Δ log2 RHOBTB1 mRNA: 1.197 log2
  Δ log2 RIG mRNA: 0.9993 log2
  Δ log2 RIP mRNA: 1.299 log2
  Δ log2 RNASE4 mRNA: 1.351 log2
  Δ log2 RNF14 mRNA: −1.293 log2
  Δ log2 RPL14 mRNA: 0.7937 log2
  Δ log2 RPL38 mRNA: 1.084 log2
  Δ log2 RPS11 mRNA: 1.097 log2
  Δ log2 RRAGD mRNA: 1.193 log2
  Δ log2 SCARB2 mRNA: 0.9635 log2
  Δ log2 SCML1 mRNA: 0.9483 log2
  Δ log2 SDC1 mRNA: −0.9726 log2
  Δ log2 SDC4 mRNA: −1.316 log2
  Δ log2 SEC24A mRNA: 0.7724 log2
  Δ log2 SELENBP1 mRNA: 1.193 log2
  Δ log2 SEPP1 mRNA: 2.014 log2
  Δ log2 SEPT9 mRNA: −0.7282 log2
  Δ log2 SERPINA6 mRNA: 1.032 log2
  Δ log2 SERPINE1 mRNA: −1.338 log2
  Δ log2 SF3B4 mRNA: −1.044 log2
  Δ log2 SGPL1 mRNA: −1.59 log2
  Δ log2 SGPP1 mRNA: −1.773 log2
  Δ log2 SH3YL1 mRNA: 1.026 log2
  Δ log2 SLC2A3 mRNA: 0.7467 log2
  Δ log2 SLC3A2 mRNA: −1.221 log2
  Δ log2 SLC4A4 mRNA: −1.661 log2
  Δ log2 SLC4A7 mRNA: −0.9064 log2
  Δ log2 SLC7A5 mRNA: −1.958 log2
  Δ log2 SLC7A11 mRNA: −0.721 log2
  Δ log2 SLC26A2 mRNA: −1.615 log2
  Δ log2 SLC35D1 mRNA: −1.443 log2
  Δ log2 SLC39A6 mRNA: −2.468 log2
  Δ log2 SMARCA2 mRNA: 0.8119 log2
  Δ log2 SMTN mRNA: −1.071 log2
  Δ log2 SNRPD1 mRNA: −0.7027 log2
  Δ log2 SOCS2 mRNA: −0.7193 log2
  Δ log2 SORBS3 mRNA: −1.106 log2
  Δ log2 SPFH2 mRNA: 0.9346 log2
  Δ log2 SRD5A1 mRNA: −0.9713 log2
  Δ log2 STC1 mRNA: 0.8696 log2
  Δ log2 STK24 mRNA: −1.021 log2
  Δ log2 STX3A mRNA: 0.7983 log2
  Δ log2 SUMO2 mRNA: 0.9996 log2
  Δ log2 TAGLN mRNA: −0.9221 log2
  Δ log2 TARDBP mRNA: −1.05 log2
  Δ log2 TFG mRNA: 0.9981 log2
  Δ log2 TFPI mRNA: 1.003 log2
  Δ log2 TGFBR2 mRNA: 1.068 log2
  Δ log2 TGFBR3 mRNA: 1.082 log2
  Δ log2 THBS1 mRNA: −0.9922 log2
  Δ log2 TJP2 mRNA: 0.8301 log2
  Δ log2 TLR3 mRNA: 1.096 log2
  Δ log2 TM4SF20 mRNA: 0.9319 log2
  Δ log2 TNFAIP6 mRNA: −1.542 log2
  Δ log2 TNFRSFI2A mRNA: −1.07 log2
  Δ log2 TNFSF10 mRNA: 1.066 log2
  Δ log2 TNRC9 mRNA: 0.8141 log2
  Δ log2 TNS1 mRNA: 1.235 log2
  Δ log2 TP73L mRNA: 0.7602 log2
  Δ log2 TRA1 mRNA: 1.982 log2
  Δ log2 TRIM14 mRNA: −1.157 log2
  Δ log2 TRIM22 mRNA: 1.379 log2
  Δ log2 TSC mRNA: 1.372 log2
  Δ log2 TSPAN7 mRNA: 0.8049 log2
  Δ log2 TSPAN8 mRNA: 1.266 log2
  Δ log2 TTC3 mRNA: 0.7079 log2
  Δ log2 TUBB2 /// TUBB-PARALOG mRNA: −0.904 log2
  Δ log2 TXN mRNA: 1.543 log2
  Δ log2 TncRNA: 1.613 log2
  Δ log2 UAP1 mRNA: −1.613 log2
  Δ log2 UBE2L6 mRNA: 0.9119 log2
  Δ log2 UPK1B mRNA: −1.042 log2
  Δ log2 VDAC1 mRNA: −1.181 log2
  Δ log2 VDAC3 mRNA: 1.063 log2
  Δ log2 VIL2 mRNA: 0.7604 log2
  Δ log2 WDR1 mRNA: −0.8373 log2
  Δ log2 WDR41 mRNA: −1.49 log2
  Δ log2 WEE1 mRNA: 0.8892 log2
  Δ log2 WNT7B mRNA: −1.114 log2
  Δ log2 XM_371853 (gene symbol —) mRNA: 0.9326 log2
  Δ log2 XTP2 mRNA: 0.9083 log2
  Δ log2 YKT6 mRNA: −1.176 log2
  Δ log2 YOD1 mRNA: 0.869 log2
  Δ log2 YTHDF3 mRNA: −0.9397 log2
  Δ log2 ZNF467 mRNA: 1.211 log2
